Test results as given in PubChem BioAssay (NCI).
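Where inhibition never reached the appropriate level, the endpoint shown equals the highest concentration tested. Otherwise, values were interpolated linearly from a five-concentration, 48-hour dose response in 96-well plates. Definition used: TGI = concentration required for complete inhibition of growth.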

What was measured:
Experiment in all cases: NCI tumour cell line growth inhibition, 48 h
[1] = system: 786-0 renal
[2] = system: A498 renal
[3] = system: A549 NSCLC
[4] = system: ACHN renal
[5] = system: BT-549 breast
[6] = system: CAKI-1 renal
[7] = system: CCRF-CEM leukemia
[8] = system: COLO 205 colon
[9] = system: DU-145 prostate
[10] = system: EKVX NSCLC
[11] = system: HCC-2998 colon
[12] = system: HCT-116 colon
[13] = system: HCT-15 colon
[14] = system: HL-60(TB) leukemia
[15] = system: HOP-62 NSCLC
[16] = system: HS 578T breast
[17] = system: HT29 colon
[18] = system: IGROV1 ovarian
[19] = system: K-562 leukemia
[20] = system: KM12 colon
[21] = system: LOX IMVI melanoma
[22] = system: M14 melanoma
[23] = system: MALME-3M melanoma
[24] = system: MCF7 breast
[25] = system: MDA-MB-231 breast
[26] = system: MDA-MB-435
[27] = system: MOLT-4 leukemia
[28] = system: NCI-H226 lung
[29] = system: NCI-H23 lung
[30] = system: NCI-H460 lung
[31] = system: NCI-H522 lung
[32] = system: NCI/ADR-RES ovarian
[33] = system: OVCAR-3 ovarian
[34] = system: OVCAR-4 ovarian
[35] = system: OVCAR-5 ovarian
[36] = system: OVCAR-8 ovarian
[37] = system: PC-3 prostate
[38] = system: RPMI-8226 leukemia
[39] = system: RXF 393 renal
[40] = system: SF-268 CNS
[41] = system: SF-295 CNS
[42] = system: SF-539 CNS
[43] = system: SK-MEL-2 melanoma
[44] = system: SK-MEL-28 melanoma
[45] = system: SK-MEL-5 melanoma
[46] = system: SK-OV-3 ovarian
[47] = system: SN12C renal
[48] = system: SNB-19 CNS
[49] = system: SNB-75 CNS
[50] = system: SR leukemia
[51] = system: SW-620 colon
[52] = system: T-47D breast
[53] = system: TK-10 renal
[54] = system: U251 CNS
[55] = system: UACC-257 melanoma
[56] = system: UACC-62 melanoma
[57] = system: UO-31 renal

Compound: CN1C2CCC1CC(=CCOC(c1ccc(F)cc1)c1ccc(F)cc1)C2
- TGI [1]: 27.9 µM
- TGI [2]: 28.7 µM
- TGI [3]: 32.4 µM
- TGI [4]: 31.8 µM
- TGI [5]: 30.1 µM
- TGI [6]: 30.6 µM
- TGI [7]: > 100 µM
- TGI [8]: 30.5 µM
- TGI [9]: 30.5 µM
- TGI [10]: 40.8 µM
- TGI [11]: 13.3 µM
- TGI [12]: 24.6 µM
- TGI [13]: 29.6 µM
- TGI [14]: 43.5 µM
- TGI [15]: 32.2 µM
- TGI [16]: 27.5 µM
- TGI [17]: 19.9 µM
- TGI [18]: 30.1 µM
- TGI [19]: 28 µM
- TGI [20]: 29.6 µM
- TGI [21]: 31.5 µM
- TGI [22]: 31.9 µM
- TGI [23]: 27.2 µM
- TGI [24]: 34.6 µM
- TGI [25]: 37.1 µM
- TGI [26]: 25.7 µM
- TGI [27]: 42.3 µM
- TGI [28]: 37.4 µM
- TGI [29]: 32 µM
- TGI [30]: 35.3 µM
- TGI [31]: 24.7 µM
- TGI [32]: 40.1 µM
- TGI [33]: 31.3 µM
- TGI [34]: 31.9 µM
- TGI [35]: 36 µM
- TGI [36]: 32 µM
- TGI [37]: 33.1 µM
- TGI [38]: 38 µM
- TGI [39]: 28.2 µM
- TGI [40]: 27 µM
- TGI [41]: 30.9 µM
- TGI [42]: 31.9 µM
- TGI [43]: 39.4 µM
- TGI [44]: 47.9 µM
- TGI [45]: 23.2 µM
- TGI [46]: 31.3 µM
- TGI [47]: 33.5 µM
- TGI [48]: 37.8 µM
- TGI [49]: 27.1 µM
- TGI [50]: 37.3 µM
- TGI [51]: > 100 µM
- TGI [52]: 35.1 µM
- TGI [53]: 28.5 µM
- TGI [54]: 33.2 µM
- TGI [55]: 31.7 µM
- TGI [56]: 29.5 µM
- TGI [57]: 21.8 µM
